# Structures can show the parent of a compound that is named as a salt.
# How the values were obtained:
# [1] = tested on: Staphylococcus aureus methicillin resistant ATCC 33591; assay: Mouse bacteraemia model, SC dosing; assay type: in vivo
# Experimental: Groups of 6 male CD-1 (Crl.) derived mice weighing 24±2 g were used. Mice were inoculated intraperitoneally (IP) with an LD90-100 of Staphylococcus aureus methicillin resistant ATCC 33591 (1.1×10^7 CFU/mouse) in 0.5 mL of BHI broth containing 5% mucin. Example 1 and vancomycin were dissolved in 15% HPbetaCD/4.4% glucose/0.5 mM KH2PO4, pH 5.0 and doses of 1, 3, 5, 10 and 20 mg/Kg were administered subcutaneously (SC) to test animals at 0, 2 and 24 hour(s) after bacteria challenge. The dosing volume was 5 mL/Kg. Mortality was recorded once daily for 7 days (FIG. 1). The ED50 for each compound was determined by nonlinear regression.
# [2] = tested on: Vancomycin-intermediate Staphylococcus aureus; assay: MIC susceptibility testing, vancomycin-intermediate Staphylococcus aureus; assay type: cell-based
# Experimental: (§1) Susceptibility testing with the exception of Streptococcus pneumoniae was performed by two-fold serial dilutions in Mueller Hinton Broth supplemented with 50 μg/mL Ca^2+. Susceptibility testing of S. pneumoniae was performed by two-fold serial dilutions in Brain-Heart-Infusion Broth supplemented with 50 μg/mL Ca^2+.
# (§2) Modal values from up to 6 determinations
# S. pyogenes = assay: MIC susceptibility testing, S. pyogenes; assay type: cell-based
# Experimental: as §1, §2
# Streptococcus pneumoniae = assay: MIC susceptibility testing, S. pneumoniae (Brain-Heart-Infusion Broth); assay type: cell-based; conditions: S. pneumoniae R33
# Experimental: as §1, §2
# [3] = tested on: Methicillin-resistant Staph. epidermidis; assay: MIC susceptibility testing, methicillin-resistant Staph. epidermidis; assay type: cell-based, S. epidermidis
# Experimental: as §1, §2
# MRSA = assay: MIC susceptibility testing, MRSA; assay type: cell-based, Staphylococcus aureus
# Experimental: as §1, §2
# [4] = tested on: Vancomycin resistant enterococci, E. faecium; assay: MIC susceptibility testing, vancomycin resistant enterococci (E. faecium); assay type: cell-based
# Experimental: as §1, §2
# [5] = tested on: Methicillin Resistant Staphylococcus aureus (MRSA, ATCC 33591); assay: Neutropaenic mouse thigh infection model; assay type: in vivo
# Experimental: In vivo efficacy of compounds of the present invention in the treatment of bacterial tissue infections was evaluated using a neutropaenic mouse thigh model.
# Groups of 6 male ICR mice weighing 24±2 g were used. Test animals were immunosuppressed by 2 intraperitoneal injections of cyclophosphamide, the first at 150 mg/Kg 4 days before infection (day-4) and the second at 100 mg/Kg 1 day before infection (day-1). On day 0, individual animals were inoculated intramuscularly (IM) into the right thigh of test animals with 1.15×10^8 CFU/mouse of Methicillin Resistant Staphylococcus aureus (MRSA, ATCC 33591) suspended in 100 μL of sterile PBS, pH 7.4. Vehicle and test substances were administered intravenously (IV) at a dose volume of 6 mL/Kg, 2 and 14 hours after thigh infection. Example 1 and vancomycin were dissolved in 15% hydroxypropyl-β-cyclodextrin/4.4% glucose/1.5 mM potassium phosphate buffer, pH 7.0 and administered at doses of 5, 10, 20, 30 and 40 mg/Kg. At 26 hours after inoculation, muscle of the right thigh of each test mouse was harvested. From an additional group with no treatment, muscle of the right thigh was harvested at 2 hours after inoculation for the basal CFU determination. The removed muscle tissues were then homogenized in 3-4 mL of PBS, pH 7.4 with a ceramic mortar. Homogenates of 0.1 mL were used for serial 10-fold dilutions and plated on Mueller Hinton broth in 1.5% Bacto agar for CFU determination. […] Results (mean cfu/g) are graphically represented in FIG. 2.
smiles,measurement,setting,value
"CC[C@H](C)[C@@H]1NC(=O)[C@@H]2NC(=O)[C@H](CC(C)C)NC(=O)[C@H](NC(=O)[C@@H]3CSC[C@@H](N)C(=O)N[C@@H](CO)C(=O)NCC(=O)N[C@@H](Cc4c[nH]c5ccccc45)C(=O)N[C@@H](C(C)C)C(=O)N3)[C@H](C)SC[C@H](NC(=O)[C@H](CCC(=O)O)NC1=O)C(=O)NCC(=O)N[C@H]1C(=O)N[C@@H](CC(C)C)C(=O)N[C@@H](C(C)C)C(=O)N[C@@H](CS[C@H]2C)C(=O)N[C@@H](C)C(=O)N[C@H](C(=O)NCc2cc(Cl)cc(Cl)c2)CS[C@H]1C [Example 1, Deoxyactagardine B (3,5-dichlorobenzylamine) monocarboxamide N-methyl glucamine salt]",survival rate,[1]; 3 mg/Kg,100%
same,antimicrobial effect against S. aureus (MRSA) in mice,"[1]; 3, 5, 10 and 20 mg/Kg×3, SC",significant antimicrobial effect
same,increase in survival rate,"[1]; 3, 5, 10 and 20 mg/Kg×3, SC",at least 50%
same,estimated ED50,"[1]; CD-1 mice, SC at 0, 2 and 24 h after challenge, mortality over 7 days, nonlinear regression",1.07 mg/kg
same,MIC,[2]; S. aureus 2,4 µg/mL
same,MIC,[2]; S. aureus 26,4 µg/mL
same,MIC,[2]; S. aureus MI,16 µg/mL
same,MIC,[2]; S. aureus Mu3,8 µg/mL
same,MIC,[2]; S. aureus Mu50,4 µg/mL
same,MIC,[2]; S. aureus NJ,8 µg/mL
same,MIC,[2]; S. aureus V99,4 µg/mL
same,MIC,S. pyogenes; S. pyogenes 7713283,0.06 µg/mL
same,MIC,S. pyogenes; S. pyogenes 7755255,<2 µg/mL
same,MIC,S. pyogenes; S. pyogenes 7755441,0.06 µg/mL
same,MIC,S. pyogenes; S. pyogenes 7755584,0.06 to 0.125 µg/mL
same,MIC,S. pyogenes; S. pyogenes 7757080,<1 µg/mL
same,MIC,S. pyogenes; S. pyogenes 7865253,0.06 µg/mL
same,MIC,S. pyogenes; S. pyogenes 7865289,0.06 µg/mL
same,MIC,S. pyogenes; S. pyogenes 7865844,8 µg/mL
same,MIC,S. pyogenes; S. pyogenes GRL05041,<1 µg/mL
same,MIC,S. pyogenes; S. pyogenes GRL05042,0.06 µg/mL
same,MIC,S. pyogenes; S. pyogenes GRL05043,<8 µg/mL
same,MIC,S. pyogenes; S. pyogenes GRL05045,<4 µg/mL
same,MIC,S. pyogenes; S. pyogenes GRL05046,0.06 µg/mL
same,MIC,Streptococcus pneumoniae,<16 µg/mL
same,MIC,[3]; S. epidermidis 7753921,8 to 16 µg/mL
same,MIC,[3]; S. epidermidis 7755298,8 µg/mL
same,MIC,[3]; S. epidermidis 7765349,4 µg/mL
same,MIC,[3]; S. epidermidis 7864847,<16 µg/mL
same,MIC,[3]; S. epidermidis 7865688,16 µg/mL
same,MIC,[3]; S. epidermidis GRL05011,16 µg/mL
same,MIC,[3]; S. epidermidis GRL05012,8 µg/mL
same,MIC,[3]; S. epidermidis GRL05013,8 to 16 µg/mL
same,MIC,[3]; S. epidermidis GRL05014,8 to 16 µg/mL
same,MIC,[3]; S. epidermidis GRL05015,8 to 16 µg/mL
same,MIC,[3]; S. epidermidis GRL05016,4 to 8 µg/mL
same,MIC,[3]; S. epidermidis GRL05017,16 µg/mL
same,MIC,[3]; S. epidermidis GRL05019,16 µg/mL
same,MIC,[3]; S. epidermidis GRL05020,4 µg/mL
same,MIC,MRSA; S. aureus 12232,4 µg/mL
same,MIC,MRSA; S. aureus R31,4 µg/mL
same,MIC,MRSA; S. aureus R33,4 µg/mL
same,MIC,MRSA; S. aureus R34,4 µg/mL
same,MIC,MRSA; S. aureus R36,4 µg/mL
same,MIC,MRSA; S. aureus R37,4 µg/mL
same,MIC,MRSA; S. aureus R39,4 to 8 µg/mL
same,MIC,MRSA; S. aureus R40,4 to 8 µg/mL
same,MIC,MRSA; S. aureus W71,8 µg/mL
same,MIC,MRSA; S. aureus W74,4 µg/mL
same,MIC,MRSA; S. aureus W82,4 to 8 µg/mL
same,MIC,MRSA; S. aureus W96,4 to 8 µg/mL
same,MIC,MRSA; S. aureus W97,4 µg/mL
same,MIC,MRSA; S. aureus W98,4 to 8 µg/mL
same,MIC,MRSA; S. aureus W99,4 to 8 µg/mL
same,MIC,[4]; E. faecium 7634337,16 µg/mL
same,MIC,[4]; E. faecium 7662769,<16 µg/mL
same,MIC,[4]; E. faecium 7860190,4 to 8 µg/mL
same,MIC,[4]; E. faecium 7865532,16 µg/mL
same,MIC,[4]; E. faecium 9704998,8 µg/mL
same,MIC,[4]; E. faecium 9709024,<16 µg/mL
same,MIC,[4]; E. faecium 9710577,16 µg/mL
same,antimicrobial effect,"[5]; IV at 5, 10, 20, 30 and 40 mg/Kg×2, 2 and 14 h after thigh infection, harvest at 26 h",significant antimicrobial effect
same,reduction in CFU/g,"[5]; at 10 mg/kg and above, IV ×2, thigh muscle at 26 h",> 1000 fold

# Source: patent US20120309676A1, “Lantibiotic Salts” (priority 2010, published 2012)
